Columns and labels:
TCam-2 (SE) = assay: XTT cell viability assay, TCam-2; assay type: cell-based; conditions: Homo sapiens, 48 h, read-out: EC50 colour/symbol code, SE TCam-2
Procedure: (§1) The […] (XTT) assays were performed as described previously. In summary, for GCT and fibroblast cell lines 5 × 10^3 cells (3 × 10^3 for UC, PCa and RCC cell lines) per 96-well were seeded and different drug concentrations (see Additional file 2: Fig. S2, Additional file 3: Fig. S3) or corresponding solvents were added to the cells the following day. For drug details see Additional file 12: Table S2 C. Each condition was analyzed in four technical replicates and EC50 values were calculated by GraphPad Prism v8.

JAR (CC) = assay: XTT cell viability assay, JAR; assay type: cell-based; conditions: Homo sapiens, after 48 h, n = 4, read-out: EC50 colour/symbol code, CC JAR
Procedure: as §1

SE (seminoma) cell lines = assay: XTT cell viability assay, mean per entity SE; assay type: cell-based; conditions: Homo sapiens, after 48 h
Procedure: as §1

[1] = system: YST (yolk-sac tumor) cell lines; assay: XTT cell viability assay, mean per entity YST; assay type: cell-based; conditions: Homo sapiens, after 48 h
Procedure: as §1

[2] = system: renal cell carcinoma (RCC) cell lines; assay: XTT cell viability assay, RCC cell lines; assay type: cell-based; conditions: Homo sapiens; mean of three cell lines, 48 h
Procedure: as §1

2102EP-R = assay: Flow cytometry apoptosis (Annexin V/PI), 2102EP-R; assay type: cell-based, Human; conditions: EC50, 16 h, compared to the parental cell line
GCT cells = assay: Flow cytometry cell cycle (PI), GCT cells; assay type: cell-based, Human; conditions: EC50, 16 h
Procedure: For Annexin V/PI staining, cells were washed with Annexin V Binding Buffer before being resuspended in 70 µl Annexin V Binding Buffer and 2.5 μl Annexin V FITC-conjugate (both Miltenyi Biotec, Bergisch Gladbach, Germany) and 15 µg PI (Sigma-Aldrich, Taufkirchen, Germany) and incubated in the dark at room temperature for 15 min. 500 µl of Annexin V Binding Buffer was added before measurement. For the cell cycle analysis, cells were washed with PBS (phosphate buffered saline), fixed by ice cold 70% ethanol and stained with 2 µg/ml PI and 200 µg/ml RNaseA (Quiagen, Hilden, Germany 100 mg/ml) in PBS shortly before every measurement. At least 5 × 10^4 cells were counted and analyzed using the MACSQuant software v 2.13.0.

[3] = system: histone modifications in 2102EP cells; assay: Mass spectrometry analysis of histone modifications (Mod Spec); assay type: cell-based, Human
In short: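 2102EP cells were treated for 16 h with EC50 concentrations of Quisinostat, JIB-04, Chaetocin, MZ-1, LP99, PRT4165 or GSK343, with DMSO as solvent control. After trypsin harvest, histones were extracted and analysed by mass spectrometry. Raw data were converted to z-scores.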

[4] = system: DNA methylation (5mC, 5hmC) in 2102EP cells; assay: DNA slot blot (5mC, 5hmC); assay type: cell-based, Human; conditions: 24 h, solvent control set to 100%
[5] = 2102EP cells, Mod Spec raw data
[6] = 2102EP, EC50, 16 h, vs solvent control

CN1C(=O)[C@@]23C[C@]4([C@]56C[C@@]78SS[C@@](CO)(C(=O)N7[C@H]5Nc5ccccc56)N(C)C8=O)c5ccccc5N[C@@H]4N2C(=O)[C@]1(CO)SS3 [Chaetocin]
EC50 (TCam-2 (SE)): < 1000 nM
EC50 (JAR (CC)): < 1000 nM
EC50 (SE (seminoma) cell lines): 122 nM
EC50 [1]: 98.7 nM
EC50 [2]: 156 nM
apoptosis induction in 2102EP-R (2102EP-R): did not induce apoptosis
cell cycle phase accumulation in GCT cells (GCT cells): accumulation in the G2/M phase
H1.4: K25AC, % of peptide pool [3, 5]: 0.02988%
H1.4: K25ME1, % of peptide pool [3, 5]: 2.019%
H1.4: K25ME2, % of peptide pool [3, 5]: 0.1186%
H1.4: K25ME3, % of peptide pool [3, 5]: 0.02061%
H1.4: K25UN, % of peptide pool [3, 5]: 97.812%
H2A1: K13AC, % of peptide pool [3, 5]: 0.0146%
H2A1: K13UN, % of peptide pool [3, 5]: 99.9854%
H2A1: K15AC, % of peptide pool [3, 5]: 0.01159%
H2A1: K15UB, % of peptide pool [3, 5]: 0%
H2A1: K15UN, % of peptide pool [3, 5]: 99.9884%
H2A3: K13AC, % of peptide pool [3, 5]: 0.04893%
H2A3: K13UN, % of peptide pool [3, 5]: 99.9511%
H2A3: K15AC, % of peptide pool [3, 5]: 0.07659%
H2A3: K15UB, % of peptide pool [3, 5]: 0%
H2A3: K15UN, % of peptide pool [3, 5]: 99.9234%
H2A: K5AC, % of peptide pool [3, 5]: 14.3188%
H2A: K5UN, % of peptide pool [3, 5]: 85.6812%
H2A: K9AC, % of peptide pool [3, 5]: 1.675%
H2A: K9UN, % of peptide pool [3, 5]: 98.3248%
H2A: K36AC, % of peptide pool [3, 5]: 0.05938%
H2A: K36UN, % of peptide pool [3, 5]: 99.9406%
H3: K9AC, % of peptide pool [3, 5]: 0.8662%
H3: K9ME1, % of peptide pool [3, 5]: 34.1794%
H3: K9ME2, % of peptide pool [3, 5]: 24.6408%
H3: K9ME3, % of peptide pool [3, 5]: 2.426%
H3: K9UN, % of peptide pool [3, 5]: 37.8878%
H3: K14AC, % of peptide pool [3, 5]: 29.886%
H3: K14UN, % of peptide pool [3, 5]: 70.114%
H3: K18AC, % of peptide pool [3, 5]: 12.8748%
H3: K18ME1, % of peptide pool [3, 5]: 0.1543%
H3: K18UN, % of peptide pool [3, 5]: 86.9709%
H3: K23AC, % of peptide pool [3, 5]: 19.2205%
H3: K23ME1, % of peptide pool [3, 5]: 0.03585%
H3: K23UN, % of peptide pool [3, 5]: 80.7437%
H3: K56AC, % of peptide pool [3, 5]: 0.2394%
H3: K56ME1, % of peptide pool [3, 5]: 0.9888%
H3: K56UN, % of peptide pool [3, 5]: 98.7718%
H3: K64AC, % of peptide pool [3, 5]: 0.03741%
H3: K64UN, % of peptide pool [3, 5]: 99.9626%
H3: K79AC, % of peptide pool [3, 5]: 1.813%
H3: K79ME1, % of peptide pool [3, 5]: 15.4225%
H3: K79ME2, % of peptide pool [3, 5]: 5.182%
H3: K79ME3, % of peptide pool [3, 5]: 17.8629%
H3: K79UN, % of peptide pool [3, 5]: 59.719%
H3: K122AC, % of peptide pool [3, 5]: 0.1813%
H3: K122UN, % of peptide pool [3, 5]: 99.8187%
H3: Q19ME1, % of peptide pool [3, 5]: 0.03077%
H3: Q19UN, % of peptide pool [3, 5]: 99.9692%
H3: Q55ME1, % of peptide pool [3, 5]: 0.2687%
H3: Q55UN, % of peptide pool [3, 5]: 99.7313%
H3: R42ME2, % of peptide pool [3, 5]: 2.246%
H3: R42UN, % of peptide pool [3, 5]: 97.7541%
H3: R49ME2, % of peptide pool [3, 5]: 6.84%
H3: R49UN, % of peptide pool [3, 5]: 93.1597%
H3R2UN: K4AC, % of peptide pool [3, 5]: 0.1823%
H3R2UN: K4ME1, % of peptide pool [3, 5]: 17.5028%
H3R2UN: K4ME2, % of peptide pool [3, 5]: 0.3386%
H3R2UN: K4ME3, % of peptide pool [3, 5]: 0.1482%
H3R2UN: K4UN, % of peptide pool [3, 5]: 81.8281%
H3R2UN: Q5ME1, % of peptide pool [3, 5]: 0.09687%
H3R2UN: Q5UN, % of peptide pool [3, 5]: 99.9031%
H3.1: K27AC, % of peptide pool [3, 5]: 2.462%
H3.1: K27ME1, % of peptide pool [3, 5]: 46.5828%
H3.1: K27ME2, % of peptide pool [3, 5]: 19.949%
H3.1: K27ME3, % of peptide pool [3, 5]: 2.906%
H3.1: K27UN, % of peptide pool [3, 5]: 28.0999%
H3.1: K36AC, % of peptide pool [3, 5]: 0.3566%
H3.1: K36ME1, % of peptide pool [3, 5]: 14.5986%
H3.1: K36ME2, % of peptide pool [3, 5]: 44.4208%
H3.1: K36ME3, % of peptide pool [3, 5]: 21.3142%
H3.1: K36UN, % of peptide pool [3, 5]: 19.3097%
H3.3: K27AC, % of peptide pool [3, 5]: 5.581%
H3.3: K27M, % of peptide pool [3, 5]: 0%
H3.3: K27ME1, % of peptide pool [3, 5]: 45.9713%
H3.3: K27ME2, % of peptide pool [3, 5]: 14.9979%
H3.3: K27ME3, % of peptide pool [3, 5]: 5.393%
H3.3: K27UN, % of peptide pool [3, 5]: 28.0564%
H3.3: K36AC, % of peptide pool [3, 5]: 3.238%
H3.3: K36ME1, % of peptide pool [3, 5]: 13.4078%
H3.3: K36ME2, % of peptide pool [3, 5]: 46.3675%
H3.3: K36ME3, % of peptide pool [3, 5]: 22.3154%
H3.3: K36UN, % of peptide pool [3, 5]: 14.6709%
H4: K5AC, % of peptide pool [3, 5]: 7.567%
H4: K5UN, % of peptide pool [3, 5]: 92.4335%
H4: K8AC, % of peptide pool [3, 5]: 11.8437%
H4: K8UN, % of peptide pool [3, 5]: 88.1563%
H4: K12AC, % of peptide pool ([3]; 2102EP cells, Mod Spec raw data, histone H4 K12 acetylated): 6.89 % of peptide pool
H4: K12UN, % of peptide pool ([3]; 2102EP cells, Mod Spec raw data, histone H4 K12 unmodified): 93.1103 % of peptide pool
H4: K16AC, % of peptide pool ([3]; 2102EP cells, Mod Spec raw data, histone H4 K16 acetylated): 48.815 % of peptide pool
H4: K16UN, % of peptide pool ([3]; 2102EP cells, Mod Spec raw data, histone H4 K16 unmodified): 51.185 % of peptide pool
H4: K20AC, % of peptide pool ([3]; 2102EP cells, Mod Spec raw data, histone H4 K20 acetylated): 23.7533 % of peptide pool
H4: K20ME2, % of peptide pool ([3]; 2102EP cells, Mod Spec raw data, histone H4 K20 dimethylated): 42.9015 % of peptide pool
H4: K20ME1, % of peptide pool ([3]; 2102EP cells, Mod Spec raw data, histone H4 K20 monomethylated): 5.498 % of peptide pool
H4: K20ME3, % of peptide pool ([3]; 2102EP cells, Mod Spec raw data, histone H4 K20 trimethylated): 1.56 % of peptide pool
H4: K20UN, % of peptide pool ([3]; 2102EP cells, Mod Spec raw data, histone H4 K20 unmodified): 26.2873 % of peptide pool
change of histone modifications of the expected mode of action (Mod Spec) [3, 6]: reduction of H3K9me2/me3
off-target changes of histone modifications (Mod Spec) [3, 6]: increase of H4K20ac
5mC levels compared to solvent control [4]: 85%
